Reference: US12590083B2, “Inhibitors of spinster homolog 2 (SPNS2) for use in therapy” (University of Virginia Patent Foundation, priority 2019, dated 2026)
Counter-ions that a name gives are not always drawn.

Target: T1, human SPNS2 (Homo sapiens, UniProt Q8IVW8)
T1 construct: expressed in transfected cells; host or cells: Saccharomyces cerevisiae strain with forced expression of a mammalian SphK and human SPNS2
T1 sequence (Q8IVW8 1-549): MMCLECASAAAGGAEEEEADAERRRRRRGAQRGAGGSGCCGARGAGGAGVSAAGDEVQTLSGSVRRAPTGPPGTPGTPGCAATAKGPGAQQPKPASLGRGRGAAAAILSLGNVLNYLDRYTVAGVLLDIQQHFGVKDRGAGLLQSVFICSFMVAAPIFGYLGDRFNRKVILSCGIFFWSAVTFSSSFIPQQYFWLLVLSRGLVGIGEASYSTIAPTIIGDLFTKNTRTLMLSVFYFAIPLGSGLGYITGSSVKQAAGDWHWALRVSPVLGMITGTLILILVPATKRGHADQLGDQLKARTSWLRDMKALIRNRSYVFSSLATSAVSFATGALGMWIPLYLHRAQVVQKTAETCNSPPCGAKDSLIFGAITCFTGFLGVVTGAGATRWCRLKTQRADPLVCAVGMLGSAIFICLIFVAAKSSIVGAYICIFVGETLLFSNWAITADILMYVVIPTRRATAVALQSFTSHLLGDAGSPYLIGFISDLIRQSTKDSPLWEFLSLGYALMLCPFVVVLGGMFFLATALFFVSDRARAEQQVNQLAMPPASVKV
Assay: S1P transporter assay: growth of S. cerevisiae strain with forced expression of a mammalian SphK and human SPNS2
Type: cell-based
Conditions: in vitro inhibition of SPNS2; growth of S. cerevisiae strain expressing mammalian SphK and human SPNS2; compounds as their pharmaceutical salts
Excerpt: Transporter assays are vectorial and, therefore, require measurement of the transported analyte in different compartments. The assay of S1P transporters is problematic because S1P is exported, but not imported, by SPNS2, which obviates measuring uptake of mass- or radio-labeled S1P into transporter-expressing cells.
To assay for SPNS2 inhibitor hits, we took advantage of the growth inhibitory effects of excessive levels of phosphorylated Long Chain Base (phospho-LCB) levels on the budding yeast, S. cerevisiae (Kharel Y, et al. Saccharomyces cerevisiae as a platform for assessing sphingolipid lipid kinase inhibitors. PLoS One 13, e0192179 (2018) PMC5908134). Yeast lack the desaturase that converts dihydroceramide to ceramide and, therefore, have neither sphingosine nor S1P. Rather, yeast have the reduced form, dihydrosphingosine, and the 4-hydroxyl analog, phytosphingosine and their respective phosphates. Like all eukaryotes, the yeast synthesizes (via LCB kinases (SphKs)) and degrades (via phospho-LCB lyase and phosphatase) phospho-LCBs, (dhS1P, phytoS1P). Yeast lack phospho-LCB transporters such as SPNS2, which are found only in vertebrates. To assess inhibition of SPNS2 in vitro, we used a strain of S. cerevisiae wherein expression of a mammalian SphK and human SPNS2 were forced. SPNS2 inhibitors decrease the growth of this strain. Table 2 below presents in vitro inhibition data against SPNS2 for exemplary compounds, presented here as their pharmaceutical salts, of the disclosure (A≤2 μM, B>2 μM).

Structure (SMILES)	IC50 [nM]
CCCCCCCCCOc1ccc(-c2noc([C@@H]3CCCN(C(=N)N)C3)n2)cc1C(F)(F)F [Compound 23e, (R)-3-(3-(4-(nonyloxy)-3-(trifluoromethyl)phenyl)-1,2,4-oxadiazol-5-yl)piperidine-1-carboximidamide hydrochloride]	≤ 2000
CCCCCCCCCCOc1ccc(-c2noc([C@@H]3CCCN(C(=N)N)C3)n2)cc1C(F)(F)F [Compound 23f, (R)-3-(3-(4-(decyloxy)-3-(trifluoromethyl)phenyl)-1,2,4-oxadiazol-5-yl)piperidine-1-carboximidamide hydrochloride]	≤ 2000
N=C(N)N1CC(c2nc(-c3ccc(OCc4ccc(C(F)(F)F)cc4)c(C(F)(F)F)c3)no2)C1 [Compound 23g, 3-(3-(3-(trifluoromethyl)-4-((4-(trifluoromethyl)benzyl)oxy)phenyl)-1,2,4-oxadiazol-5-yl)azetidine-1-carboximidamide hydrochloride]	> 2000
N=C(N)N1CCC[C@@H](c2nc(-c3ccc(OCc4ccc(C(F)(F)F)cc4)c(C(F)(F)F)c3)no2)C1 [Compound 23h, (R)-3-(3-(3-(trifluoromethyl)-4-((4-(trifluoromethyl)benzyl)oxy)phenyl)-1,2,4-oxadiazol-5-yl)piperidine-1-carboximidamide hydrochloride]	> 2000
N=C(N)N1CC(c2nc(-c3ccc(OCCCc4ccccc4)c(C(F)(F)F)c3)no2)C1 [Compound 23i, 3-(3-(4-(3-phenylpropoxy)-3-(trifluoromethyl)phenyl)-1,2,4-oxadiazol-5-yl)azetidine-1-carboximidamide hydrochloride]	> 2000
N=C(N)N1CCC[C@@H](c2nc(-c3ccc(OCCCc4ccccc4)c(C(F)(F)F)c3)no2)C1 [Compound 23j, (R)-3-(3-(4-(3-phenylpropoxy)-3-(trifluoromethyl)phenyl)-1,2,4-oxadiazol-5-yl)piperidine-1-carboximidamide hydrochloride]	> 2000
CCCCCCCCCc1ccc(-c2noc([C@@H]3CCCNC3)n2)cc1C(F)(F)F [Compound 28d, (R)-3-(4-nonyl-3-(trifluoromethyl)phenyl)-5-(piperidin-3-yl)-1,2,4-oxadiazole hydrochloride]	> 2000
CCCCCCCCCCc1ccc(-c2noc([C@@H]3CCCNC3)n2)cc1C(F)(F)F [Compound 28e, (R)-3-(4-decyl-3-(trifluoromethyl)phenyl)-5-(piperidin-3-yl)-1,2,4-oxadiazole hydrochloride]	> 2000
CCCCCCCCCCCc1ccc(-c2noc([C@@H]3CCCNC3)n2)cc1C(F)(F)F [Compound 28f, (R)-5-(piperidin-3-yl)-3-(3-(trifluoromethyl)-4-undecylphenyl)-1,2,4-oxadiazole hydrochloride]	> 2000
CCCCCCCCCCc1ccc(-c2noc(C[C@@H]3CCNC3)n2)cc1C(F)(F)F [Compound 28g, (S)-3-(4-decyl-3-(trifluoromethyl)phenyl)-5-(pyrrolidin-3-ylmethyl)-1,2,4-oxadiazole hydrochloride]	> 2000
CCCCCCCCCc1ccc(-c2noc(C3CN(C(=N)N)C3)n2)cc1C(F)(F)F [Compound 30a, 3-(3-(4-nonyl-3-(trifluoromethyl)phenyl)-1,2,4-oxadiazol-5-yl)azetidine-1-carboximidamide hydrochloride]	≤ 2000
CCCCCCCCCCc1ccc(-c2noc(C3CN(C(=N)N)C3)n2)cc1C(F)(F)F [Compound 30b, 3-(3-(4-decyl-3-(trifluoromethyl)phenyl)-1,2,4-oxadiazol-5-yl)azetidine-1-carboximidamide hydrochloride]	≤ 2000
CCCCCCCCCCCc1ccc(-c2noc(C3CN(C(=N)N)C3)n2)cc1C(F)(F)F [Compound 30c, 3-(3-(3-(trifluoromethyl)-4-undecylphenyl)-1,2,4-oxadiazol-5-yl)azetidine-1-carboximidamide hydrochloride]	> 2000
CCCCCCCCCc1ccc(-c2noc([C@@H]3CCCN(C(=N)N)C3)n2)cc1C(F)(F)F [Compound 30d, (R)-3-(3-(4-nonyl-3-(trifluoromethyl)phenyl)-1,2,4-oxadiazol-5-yl)piperidine-1-carboximidamide hydrochloride]	≤ 2000
CCCCCCCCCCc1ccc(-c2noc([C@@H]3CCCN(C(=N)N)C3)n2)cc1C(F)(F)F [Compound 30e, (R)-3-(3-(4-decyl-3-(trifluoromethyl)phenyl)-1,2,4-oxadiazol-5-yl)piperidine-1-carboximidamide hydrochloride]	≤ 2000
CCCCCCCCCCCc1ccc(-c2noc([C@@H]3CCCN(C(=N)N)C3)n2)cc1C(F)(F)F [Compound 30f, (R)-3-(3-(3-(trifluoromethyl)-4-undecylphenyl)-1,2,4-oxadiazol-5-yl)piperidine-1-carboximidamide hydrochloride]	> 2000
CCCCCCCCCCc1ccc(-c2noc(C[C@@H]3CCN(C(=N)N)C3)n2)cc1C(F)(F)F [Compound 30g, (S)-3-((3-(4-decyl-3-(trifluoromethyl)phenyl)-1,2,4-oxadiazol-5-yl)methyl)pyrrolidine-1-carboximidamide hydrochloride]	> 2000
C/C(=N\OCCCCc1ccccc1)c1ccc(-c2noc([C@@H]3CCNC3)n2)cc1 [Compound 38a, (R)-1-(4-(5-(pyrrolidin-3-yl)-1,2,4-oxadiazol-3-yl)phenyl)ethan-1-one O-(4-phenylbutyl) oxime hydrochloride]	≤ 2000
C/C(=N\OCc1cc(C(F)(F)F)cc(C(F)(F)F)c1)c1ccc(-c2noc([C@@H]3CCNC3)n2)cc1 [Compound 38b, (R)-1-(4-(5-(pyrrolidin-3-yl)-1,2,4-oxadiazol-3-yl)phenyl)ethan-1-one O-(3,5-bis(trifluoromethyl)benzyl) oxime hydrochloride]	≤ 2000
C/C(=N\OCc1ccc(C(F)(F)F)cc1)c1ccc(-c2noc([C@@H]3CCNC3)n2)cc1 [Compound 38c, (R)-1-(4-(5-(pyrrolidin-3-yl)-1,2,4-oxadiazol-3-yl)phenyl)ethan-1-one O-(4-(trifluoromethyl)benzyl) oxime hydrochloride]	> 2000
C/C(=N\OCc1ccc(-c2ccccc2)cc1)c1ccc(-c2noc([C@@H]3CCNC3)n2)cc1 [Compound 38d, (R)-1-(4-(5-(pyrrolidin-3-yl)-1,2,4-oxadiazol-3-yl)phenyl)ethan-1-one O-([1,1′-biphenyl]-4-ylmethyl) oxime hydrochloride]	> 2000
C/C(=N\OCc1ccccc1)c1ccc(-c2noc([C@@H]3CCNC3)n2)cc1 [Compound 38g, (R)-1-(4-(5-(pyrrolidin-3-yl)-1,2,4-oxadiazol-3-yl)phenyl)ethan-1-one O-benzyl oxime hydrochloride]	> 2000
C/C(=N\OCc1ccc2c(c1)C(C)(C)CCC2(C)C)c1ccc(-c2noc([C@@H]3CCNC3)n2)cc1 [Compound 38h, (R)-1-(4-(5-(pyrrolidin-3-yl)-1,2,4-oxadiazol-3-yl)phenyl)ethan-1-one O-((5,5,8,8-tetramethyl-5,6,7,8-tetrahydronaphthalen-2-yl)methyl) oxime hydrochloride]	> 2000
CCCCCCCO/N=C(\C)c1ccc(-c2noc([C@@H]3CCNC3)n2)cc1 [Compound 38i, hydrochloride]	> 2000
CCCCCCCCCO/N=C(\C)c1ccc(-c2noc([C@@H]3CCNC3)n2)cc1 [Compound 38j, hydrochloride]	> 2000
C/C(=N\OCc1ccc(C(C)(C)C)cc1)c1ccc(-c2noc([C@@H]3CCNC3)n2)cc1 [Compound 38k, (R,E)-1-(4-(5-(pyrrolidin-3-yl)-1,2,4-oxadiazol-3-yl)phenyl)ethan-1-one O-(4-(tert-butyl)benzyl) oxime hydrochlorid]	≤ 2000
CCCCCO/N=C(\C)c1ccc(-c2noc([C@@H]3CCNC3)n2)cc1 [Compound 38l, (R)-1-(4-(5-(pyrrolidin-3-yl)-1,2,4-oxadiazol-3-yl)phenyl)ethan-1-one O-pentyl oxime hydrochloride]	> 2000
C/C(=N\OCc1ccc(Br)cc1)c1ccc(-c2noc([C@@H]3CCNC3)n2)cc1 [Compound 38n, (R)-1-(4-(5-(pyrrolidin-3-yl)-1,2,4-oxadiazol-3-yl)phenyl)ethan-1-one O-(4-bromobenzyl) oxime hydrochloride]	≤ 2000
